Tests used:
[1] = tested on: Adult A. aegypti; assay: Adult A. aegypti contact assay; details: treated flask base, bioassay run for 8 hrs
Experimental: Adult A. aegypti were exposed to six rates of the positive control compound permethrin and the experimental compounds diluted with acetone. The dilutions of test compound (3-bromo-1-(3-chloro-2-pyridinyl)-N-[4-cyano-2-methyl-6-[(methylamino)carbonyl]phenyl]-1H-pyrazole-5-carboxamide)used were 0 ppm (acetone only), 0.1 ppm, 1 ppm, 10 ppm, 20 ppm, 50 ppm, 100 ppm, 500 ppm and 1000 ppm. Each rate was replicated 5 times. The test was conducted in 100 mL conical flasks. The entire inside of the flasks was coated with Coatasil the day before the treatments are applied. A 0.5 ml aliquot of each rate was applied to the bases only of the flasks. At 24 hours after the surfaces had been treated adult A. aegypti were anaesthetised using food grade carbon dioxide and 10 mosquitoes were introduced to each conical flask and the mouths of the flasks covered with parafilm. Small holes were made in the parafilm to allow gas exchange. The bioassay was run for 8 hrs at 25±2° C. and relative humidity of approximately 70%.

[2] = tested on: adult H. irritans exigua; assay: Adult H. irritans exigua feeding assay (blood meal assay); details: for mortality at 0.2 ppm: 200 ppb in bovine blood; for mortality at 0.4 ppm: 400 ppb in bovine blood; for mortality at 0.6 ppm: 600 ppb in bovine blood
Experimental: A blood meal assay was used to determine the LC50 for test compound (3-bromo-1-(3-chloro-2-pyridinyl)-N-[4-cyano-2-methyl-6-[(methylamino)carbonyl]phenyl]-1H-pyrazole-5-carboxamide) on adult H. irritans exigua. Six (6) serial dilutions of the test compound were prepared in decoagulated bovine blood that was stored refrigerated. Ivermectin was included as a positive control compound and a negative control was included in each assay. Flies were collected with a net immediately before each assay from yarded commercial cattle. About 100 adults were introduced into a mesh cage (30×30×30 cm) containing one cotton gauze (4×4×1 cm) soaked in one blood/insecticide concentration. There were 3 replicate cages of each blood/insecticide concentration. Blood gauzes were replaced every 12 hours. The untreated control cages received untreated decoagulated blood. All cages were labelled and stored for 72 hours at 25-27° C. in the dark at ambient relative humidity (70-85%). […] At 72-96 hours all flies were counted and percentage mortality was calculated. Data was subjected to log-probit analysis to determine the LC50 if there is a dose response in the assay.

[3] = tested on: Brown Dog Ticks (R. sanguineus); assay: In vivo evaluation against artificial infestations with brown dog ticks on dogs; details: topical, test compound 60 mg/kg line-on in NMP, 9 days post-treatment
Excerpt: Twenty five dogs were used in this study that investigated the efficacy of test compound (3-bromo-1-(3-chloro-2-pyridinyl)-N-[4-cyano-2-methyl-6-[(methylamino)carbonyl]phenyl]-1H-pyrazole-5-carboxamide)
against fleas and ticks. Two groups (one treated and one untreated) of five dogs were used to evaluate the flea efficacy whilst two groups of five dogs (one treated and one untreated) were used to investigate the tick efficacy. The dogs in the respective groups were infested weekly with 40 unfed adult ticks and 100 cat fleas. One group was treated with ADVANTIX and served as a positive control. The dogs in this group were infested simultaneously with fleas and ticks. Test compound was formulated in NMP. The treatment was applied topically via syringe on the dorsal line of the animals as a line-on at 60 mg/kg dose rate. The efficacy of the compound was assessed by weekly tick and flea counts. The weekly counts generated in the treated groups were compared to the positive and negative untreated control (UTC) group counts to evaluate efficacy of Test compound.

[4] = tested on: cat flea (Ctenocephalides felis Bouche); assay: In vivo evaluation against artificial infestations with cat fleas on mice; details: CD-1 mouse, 10 mg/kg oral in propylene glycol/glycerol formal (60:40), fleas applied 2 h after dosing, evaluated 48 hours after flea application
Experimental: For evaluating control of the cat flea (Ctenocephalides felis Bouche), a CD-1® mouse (about 30 g, male, obtained from Charles River Laboratories, Wilmington, Mass.) was orally dosed with test compound in an amount of 10 mg/kg solubilized in propylene glycol/glycerol formal (60:40). Two hours after oral administration of the test compound, approximately 8 to 16 adult fleas were applied to each mouse. The fleas were then evaluated for mortality 48 hours after flea application to the mouse.

Structure (SMILES) | LC90 [1] [ug/flask] | mortality at 0.2 ppm ([2]; exposure time 7 hr) [%] | mortality at 0.2 ppm ([2]; exposure time 17 hr) [%] | mortality at 0.2 ppm ([2]; exposure time 24 hr) [%] | mortality at 0.4 ppm ([2]; exposure time 7 hr) [%] | mortality at 0.4 ppm ([2]; exposure time 17 hr) [%] | mortality at 0.4 ppm ([2]; exposure time 24 hr) [%] | mortality at 0.6 ppm ([2]; exposure time 7 hr) [%] | mortality at 0.6 ppm ([2]; exposure time 17 hr) [%] | mortality at 0.6 ppm ([2]; exposure time 24 hr) [%] | efficacy against ticks [3] | flea mortality [4] [%]
CC1(C)C(C=C(Cl)Cl)C1C(=O)OCc1cccc(Oc2ccccc2)c1 (stereo not shown) [Permethrin, reference compound] | 0.046 |  |  |  |  |  |  |  |  |  |  | 
CNC(=O)c1cc(C#N)cc(C)c1NC(=O)c1cc(Br)nn1-c1ncccc1Cl [Test compound, 3-bromo-1-(3-chloro-2-pyridinyl)-N-[4-cyano-2-methyl-6-[(methylamino)carbonyl]phenyl]-1H-pyrazole-5-carboxamide] | 0.033 | 77.3 | 78.8 | 80.3 | 78.8 | 89.8 | 94.9 | 80.5 | 94.7 | 96.5 | over 94.9% | 45

Reference: US8932613B2, “Ectoparasite control method” (E I du Pont de Nemours and Company, priority 2007, dated 2015)
